Results from patent US20240076440A1, “PROCESS OF FORMING A CONJUGATED POLYMER” (Sumitomo Chemical Co., ltd., priority 2019, published 2024).

Assay: Solubilities of Monomers 1 and 2 in toluene, MeOH and water
Assay type: physicochemical

Row | Solubility in MeOH (Conc 0.1 mg/ml) | Solubility in Toluene (Conc 0.1 mg/ml) | Solubility in MeOH (Conc 1 mg/ml) | Solubility in Toluene (Conc 1 mg/ml) | Solubility in Water (Conc 1 mg/ml) | Solubility in MeOH (Conc 50 mg/ml) | Solubility in MeOH (Conc 75 mg/ml) | Solubility in Toluene (Conc 75 mg/ml) | Solubility in Toluene (Conc 1 g/ml) | Solubility in Toluene (Conc 2 g/ml) | Solubility in Water (Conc 50 mg/ml) | Compound
1 | Soluble | Soluble | Soluble | Soluble | Insoluble | Soluble | Not Soluble | soluble | Soluble | Soluble | – | CCCCCCCCC1(CCCCCCCC)c2cc(B3OCCO3)ccc2-c2ccc(B3OCCO3)cc21 [Monomer 1]
2 | – | Insoluble | – | Insoluble | Soluble | Soluble | – | – | – | – | Insoluble | C[N+](C)(C)CCC1(CC[N+](C)(C)C)c2cc(Br)ccc2-c2ccc(Br)cc21 [Monomer 2]
